Assay results as given in ChEMBL document CHEMBL5257132, “Discovery of a Novel Series of Potent SHP2 Allosteric Inhibitors” (ACS Med Chem Lett, 2023).

Experiments:
[1] = Inhibition of ERK phosphorylation in human KYSE520 cells incubated for 2 hrs by TR-FRET assay; format: cell-based; details: KYSE-520, 2 h
[2] = target: Voltage-gated inwardly rectifying potassium channel KCNH2 (Homo sapiens, UniProt Q12809); experiment: Inhibition of human ERG by fluorescence polarization assay; format: toxicity
Sequence of Voltage-gated inwardly rectifying potassium channel KCNH2 (Q12809 whole entry): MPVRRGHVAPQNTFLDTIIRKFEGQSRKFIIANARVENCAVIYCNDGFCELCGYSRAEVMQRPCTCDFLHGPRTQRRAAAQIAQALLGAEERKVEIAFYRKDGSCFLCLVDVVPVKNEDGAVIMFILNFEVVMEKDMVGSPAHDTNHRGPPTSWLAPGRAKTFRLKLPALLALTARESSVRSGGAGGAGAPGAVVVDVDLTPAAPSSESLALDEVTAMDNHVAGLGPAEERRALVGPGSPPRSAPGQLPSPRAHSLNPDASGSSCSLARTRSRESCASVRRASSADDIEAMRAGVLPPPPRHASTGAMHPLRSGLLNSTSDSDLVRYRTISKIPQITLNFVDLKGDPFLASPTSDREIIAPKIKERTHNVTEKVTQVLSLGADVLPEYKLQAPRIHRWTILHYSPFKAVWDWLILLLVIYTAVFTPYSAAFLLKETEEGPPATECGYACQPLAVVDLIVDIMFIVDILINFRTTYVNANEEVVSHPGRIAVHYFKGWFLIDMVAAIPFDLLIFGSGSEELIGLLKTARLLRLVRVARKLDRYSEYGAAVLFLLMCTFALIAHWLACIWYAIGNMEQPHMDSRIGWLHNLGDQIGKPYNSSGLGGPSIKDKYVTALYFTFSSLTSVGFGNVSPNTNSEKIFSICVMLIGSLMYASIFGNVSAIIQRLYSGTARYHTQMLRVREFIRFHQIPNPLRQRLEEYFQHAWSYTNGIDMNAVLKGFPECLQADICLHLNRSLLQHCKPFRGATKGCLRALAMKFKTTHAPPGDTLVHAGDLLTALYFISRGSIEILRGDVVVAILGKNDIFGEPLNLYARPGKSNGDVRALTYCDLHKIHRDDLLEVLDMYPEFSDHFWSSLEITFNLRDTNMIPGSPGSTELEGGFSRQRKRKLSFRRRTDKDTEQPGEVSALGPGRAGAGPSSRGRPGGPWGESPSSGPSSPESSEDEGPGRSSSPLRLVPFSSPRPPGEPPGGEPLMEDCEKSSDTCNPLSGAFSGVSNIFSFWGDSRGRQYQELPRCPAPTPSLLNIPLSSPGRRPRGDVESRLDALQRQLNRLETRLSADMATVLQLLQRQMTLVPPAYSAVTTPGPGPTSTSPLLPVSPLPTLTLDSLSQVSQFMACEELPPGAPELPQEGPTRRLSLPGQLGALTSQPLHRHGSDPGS

[3] = target: T1, Tyrosine-protein phosphatase non-receptor type 11 (Homo sapiens, UniProt Q06124); experiment: Allosteric inhibition of recombinant human SHP2 using IRS1 peptide and DiFMUP as substrate incubated for 30 mins followed by DiFMUP addition and measured after 30 mins by fluorescence based microplate reader analysis
T1 sequence (Q06124 whole entry): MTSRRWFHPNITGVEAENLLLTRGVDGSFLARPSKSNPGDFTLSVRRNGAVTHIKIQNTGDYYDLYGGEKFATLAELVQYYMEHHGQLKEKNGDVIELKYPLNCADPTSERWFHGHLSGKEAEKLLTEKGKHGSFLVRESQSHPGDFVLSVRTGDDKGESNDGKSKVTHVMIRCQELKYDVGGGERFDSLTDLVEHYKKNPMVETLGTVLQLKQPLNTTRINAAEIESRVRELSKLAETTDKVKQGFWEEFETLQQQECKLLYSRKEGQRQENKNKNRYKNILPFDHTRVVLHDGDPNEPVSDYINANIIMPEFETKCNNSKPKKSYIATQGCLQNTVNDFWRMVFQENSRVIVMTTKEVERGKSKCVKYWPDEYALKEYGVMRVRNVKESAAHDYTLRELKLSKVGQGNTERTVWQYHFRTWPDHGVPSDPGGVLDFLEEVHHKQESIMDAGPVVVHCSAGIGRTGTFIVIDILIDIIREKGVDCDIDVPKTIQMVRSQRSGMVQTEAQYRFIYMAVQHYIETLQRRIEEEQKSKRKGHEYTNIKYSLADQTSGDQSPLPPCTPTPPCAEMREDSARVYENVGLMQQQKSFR

KYSE-520 cell line = experiment: Antiproliferative activity against human KYSE520 cells assessed as inhibition of cell proliferation incubated for 96 hrs by CellTiter-Glo reagent based assay; format: functional; details: KYSE-520, 96 h
[4] = Apparent permeability of compound at pH 7.4 at 5 uM incubated for 4 hrs by PAMPA based LC-MS/MS analysis; format: ADME

Cn1cc2c(Cl)c(-c3n[nH]c4nc(N5C[C@@H]6[C@H](C5)[C@@]6(CN)c5nccs5)cnc34)ccc2n1
IC50 [1]: 60 nM
IC50 [2]: 13500 nM
IC50 [3]: 4 nM

NC[C@]1(c2ccsc2)[C@@H]2CCN(c3cnc4c(-c5cccc(Cl)c5Cl)n[nH]c4n3)C[C@@H]21
IC50 [1]: 100 nM
IC50 [2]: 109 nM
IC50 [3]: 8 nM

NC[C@]1(c2ccccc2)[C@@H]2CCN(c3cnc(Sc4cccnc4C(F)(F)F)c(N)n3)C[C@@H]21
IC50 [3]: 360 nM

Cc1nnc([C@@]2(CN)[C@@H]3CN(c4cnc5c(-c6ccc7nn(C)cc7c6Cl)n[nH]c5n4)C[C@@H]32)s1
IC50 [1]: 162 nM
IC50 [2]: > 30000 nM
IC50 [3]: 10 nM

N[C@]1(c2ccccc2)[C@@H]2CN(c3nc4nc(Sc5cccnc5C(F)(F)F)cnc4[nH]3)C[C@@H]21
IC50 [3]: > 8000 nM

Cc1nc([C@@]2(CN)[C@@H]3CN(c4cnc5c(-c6ccc7nn(C)cc7c6Cl)n[nH]c5n4)C[C@@H]32)cs1
IC50 [1]: 89 nM
IC50 [2]: > 30000 nM
IC50 [3]: 6 nM

Cc1csc([C@@]2(CN)[C@@H]3CN(c4cnc5c(-c6ccc7nc(C)sc7c6Cl)n[nH]c5n4)C[C@@H]32)n1
IC50 [1]: 22 nM
IC50 [2]: 1660 nM
IC50 [3]: 5 nM

Cn1cc2c(Cl)c(-c3n[nH]c4nc(N5C[C@@H]6[C@H](C5)[C@@]6(CN)c5ccccn5)cnc34)ccc2n1
IC50 [1]: 40 nM
IC50 [2]: 8960 nM
IC50 [3]: 5 nM

Cn1cc2c(Cl)c(-c3n[nH]c4nc(N5C[C@@H]6[C@H](C5)[C@@]6(CN)c5nc(Cl)cs5)cnc34)ccc2n1
IC50 [1]: 9 nM
IC50 [2]: 12300 nM
IC50 (KYSE-520 cell line): 183 nM
IC50 [3]: 5 nM

NC[C@]1(c2ccccc2)[C@@H]2CCN(c3cnc4c(-c5cccc(Cl)c5Cl)n[nH]c4n3)C[C@@H]21
IC50 [1]: 260 nM
IC50 [2]: 389 nM
IC50 [3]: 9 nM

Cc1cccc([C@@]2(CN)[C@@H]3CN(c4cnc5c(-c6ccc7nn(C)cc7c6Cl)n[nH]c5n4)C[C@@H]32)n1
IC50 [1]: 90 nM
IC50 [2]: 5870 nM
IC50 [3]: 4 nM

NC[C@]1(c2ccccn2)[C@@H]2CCN(c3nc4nc(Sc5cccnc5C(F)(F)F)cnc4[nH]3)C[C@@H]21
IC50 [1]: 477 nM
IC50 [3]: 17 nM

NC[C@]1(c2ccccn2)[C@@H]2CCN(c3cnc4c(-c5cccc(Cl)c5Cl)n[nH]c4n3)C[C@@H]21
IC50 [1]: 42 nM
IC50 [2]: 42 nM
IC50 [3]: 5 nM

Cn1ccc([C@@]2(CN)[C@@H]3CN(c4cnc5c(-c6ccc7nn(C)cc7c6Cl)n[nH]c5n4)C[C@@H]32)n1
IC50 [1]: 153 nM
IC50 [2]: > 30000 nM
IC50 [3]: 7 nM

Cc1csc([C@@]2(CN)[C@@H]3CCN(c4cnc5c(-c6ccc7nc(C)sc7c6Cl)n[nH]c5n4)C[C@@H]32)n1
Papp at 4 h, 5 µM [4]: 4.36 ×10⁻⁶ cm/s
IC50 [1]: 4 nM
IC50 [2]: 24 nM
IC50 [3]: 2 nM

Cc1ccn([C@@]2(CN)[C@@H]3CN(c4cnc5c(-c6ccc7nn(C)cc7c6Cl)n[nH]c5n4)C[C@@H]32)n1
IC50 [1]: 444 nM
IC50 [2]: > 30000 nM
IC50 [3]: 49 nM

Cc1csc([C@@]2(CN)[C@@H]3CCN(c4cnc5c(-c6ccc7nn(C)cc7c6Cl)n[nH]c5n4)C[C@@H]32)n1
IC50 [1]: 14 nM
IC50 [2]: 107 nM
IC50 [3]: 6 nM

N[C@]1(c2ccccc2)[C@@H]2CCN(c3nc4nc(Sc5cccnc5C(F)(F)F)cnc4[nH]3)C[C@@H]21
IC50 [3]: 1410 nM
